Source: US6958324B2, “Inosine compounds and their use for treating or preventing an inflamation or a reperfusion disease” (Inotek Pharmaceuticals Corporation, priority 1998, dated 2005)

What was measured:
Format in all cases: in vivo
[1] = tested on: DBA/1J mice; test: Collagen-induced arthritis: MPO and MDA levels in paws; conditions: 100 or 200 mg/kg/day, BID, gavage; paws 24 days after second collagen injection
Experimental: (§1) Mice were evaluated daily for arthritis by using a macroscopic scoring system ranging from 0-4 (0=no signs of arthritis, 1=swelling or redness of the paw or one digit, 2=two joints involved, 3=more than 2 joints involved, 4=severe arthritis of the entire paw). The arthritic index for each mouse was calculated by adding the four scores of the individual paws. […] At study termination, paws were removed from all animals in each treatment group and randomly assigned to MPO, MDA or chemokines/cytokine measurements.
The effect of 5′-IMS on the levels of MPO and MDA in paws of DBA/1J mice treated with subdermal injections of collagen to induce arthritis was studied. Gavage treatment with 5′-IMS (100 or 200 mg/kg/day, BID) commenced on the day of the second collagen injection and paws were taken 24 days later and homogenized for MPO and MDA measurements. Data are expressed as mean ±SEM from n=10 animals. […] Accordingly, 5′-IMS, an illustrative inosine compound, is useful for treating or preventing an inflammation disease, particularly arthritis, in a patient.

[2] = tested on: DBA/1J mice; test: Collagen-induced arthritis: incidence and severity
Experimental: The effect of 5′-IMS in a murine model system of collagen-induced arthritis was studied. Male DBA/1J mice were injected intradermally on day 1 with 0.1 mL of an emulsion of bovine type II collagen plus complete Freunds's adjuvant (CFA). A second injection was administered on day 21. Treatment with 5′-IMS (100 or 200 mg/kg/day, BID) per gavage was begun on the day of the second collagen/CFA injection and continued throughout the study, which was terminated on day 45 (24 days after the second injection).
as §1
Arthritis was induced in DBA/1J mice by two 100 μL sub-dermal injections of a 1:1 mixture of bovine collagen type II (1 mg/mL) and complete Freund's adjuvant (1 mg/mL) 21 days apart. Gavage treatment with 5′-IMS (100 or 200 mg/kg/day, BID) commenced on the day of the second injection. […] Statistical analysis was performed by Student's t-test or fisher's exact test as appropriate. […]

[3] = tested on: DSS mice; test: DSS colitis, inosine versus 5′-IMS at 50, 100 and 300 μmoles/kg/day
Source text: The effect of various doses (50, 100 and 300 μmoles/kg/day) inosine and IMS on the outcome of DSS (dextran sodium sulfate) colitis in mice. Colonic length, gross histologic score, colonic MDA content and colonic MPO content have been determined. N=10 animals per experimental groups. *p<0.05 and **p<0.01 indicates significant improvements in drug treated DSS animals, when compared to vehicle treated DSS animals. Mean +SEM are presented, except for histological scores, which are presented as medians.
Significant improvements in 5′-IMS treated DSS animals was observed as compared to vehicle treated DSS animals. Mean ±SEM are shown, except for the histological scores, which are presented as medians.

[4] = tested on: DBA/1J mice; test: Collagen-induced arthritis: chemokine and cytokine levels in paws; conditions: 200 mg/kg/day gavage, 24 days after second collagen injection
Experimental: as §1
The effect of 5′-IMS on the levels of the chemokine MIP-1α and the cytokines 1L-12 and TNF-α in paws of DBA/1J mice treated with subdermal injections of collagen to induce arthritis was studied. Gavage treatment with 5′-IMS (100 or 200 mg/kg/day, BID) commenced on the day of the second collagen injection and paws were taken 24 days later and homogenized for analysis. […] Data are expressed as mean ±SEM from n=10 animals. […] Accordingly, 5′-IMS, an illustrative inosine compound, is useful for treating or preventing an inflammation disease, particularly arthritis, in a patient.

[5] = 50, 100 and 300 μmoles/kg/day, vs vehicle treated DSS animals

O=S(=O)(O)OC[C@H]1O[C@@H](n2cnc3c(O)ncnc32)[C@H](O)[C@@H]1O [5′-IMS, inosine 5′-monosulfate]
lipid peroxidation (reflected by MDA) in joints [1]: profoundly reduced
neutrophil infiltration (reflected by MPO concentration) in joints [1]: profoundly reduced
severity of arthritis ([2]; 100 or 200 mg/kg/day, BID, gavage): significantly reduced
prevalence of arthritis ([2]; both dosing regimens (100 or 200 mg/kg/day, BID, gavage), day 24 post second collagen injection, reduced from 90%): 25%
protection against colonic shortening [3, 5]: provided significant protection
protection against visible histological damage [3, 5]: provided significant protection
dose at which colonic MDA levels were reduced ([3]; first statement ('For example')): 50 µmol/kg/day
dose at which MDA levels were reduced (second statement, 'Similarly') ([3]; second statement of b313): 50 µmol/kg/day
levels of MIP-1α in paws [4]: significantly reduced
levels of TNF-α in paws [4]: significantly reduced
IL-12 levels in paws ([4]; p=0.09): tended to reduce
